Data reported in ChEMBL document CHEMBL1938231 (J Med Chem, 2011).

target: T1, Tyrosine-protein kinase JAK1 (Homo sapiens, UniProt P23458); assay: not given; format: cell-based, Sf9; settings: not given
T1 sequence (P23458 whole entry): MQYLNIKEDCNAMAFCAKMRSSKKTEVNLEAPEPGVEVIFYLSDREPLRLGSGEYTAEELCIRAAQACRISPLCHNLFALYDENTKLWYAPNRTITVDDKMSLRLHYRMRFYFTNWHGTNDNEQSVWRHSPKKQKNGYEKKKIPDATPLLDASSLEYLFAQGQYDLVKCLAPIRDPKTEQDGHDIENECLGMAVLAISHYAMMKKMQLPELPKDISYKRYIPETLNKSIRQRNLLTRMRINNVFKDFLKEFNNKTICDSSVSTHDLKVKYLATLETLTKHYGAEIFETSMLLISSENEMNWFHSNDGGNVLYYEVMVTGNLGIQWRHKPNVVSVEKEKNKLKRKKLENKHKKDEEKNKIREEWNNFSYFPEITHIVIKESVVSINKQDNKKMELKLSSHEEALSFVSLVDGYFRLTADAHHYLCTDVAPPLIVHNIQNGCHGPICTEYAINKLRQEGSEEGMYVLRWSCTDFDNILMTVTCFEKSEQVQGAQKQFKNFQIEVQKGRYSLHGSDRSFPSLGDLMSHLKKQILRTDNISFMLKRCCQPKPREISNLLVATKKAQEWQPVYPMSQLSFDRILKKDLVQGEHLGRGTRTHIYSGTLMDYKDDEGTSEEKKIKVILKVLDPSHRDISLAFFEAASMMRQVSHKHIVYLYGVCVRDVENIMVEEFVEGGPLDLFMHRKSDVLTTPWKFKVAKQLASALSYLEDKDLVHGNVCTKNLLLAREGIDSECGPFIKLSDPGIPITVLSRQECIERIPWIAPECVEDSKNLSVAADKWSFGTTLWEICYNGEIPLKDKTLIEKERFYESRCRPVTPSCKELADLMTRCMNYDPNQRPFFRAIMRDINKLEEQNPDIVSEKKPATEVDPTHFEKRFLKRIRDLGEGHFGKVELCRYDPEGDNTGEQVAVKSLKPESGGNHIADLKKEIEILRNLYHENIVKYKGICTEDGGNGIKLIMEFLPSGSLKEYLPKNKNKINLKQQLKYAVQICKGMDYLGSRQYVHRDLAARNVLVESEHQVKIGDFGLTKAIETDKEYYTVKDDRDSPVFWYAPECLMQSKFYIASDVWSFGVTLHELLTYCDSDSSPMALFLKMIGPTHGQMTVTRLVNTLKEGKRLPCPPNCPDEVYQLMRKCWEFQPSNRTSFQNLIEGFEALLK

| SMILES | IC50 [nM] |
| --- | --- |
| CNC(=O)c1cnc(N)c2cc(-c3ccc(C(C)(C)C)cc3)sc12 | 39 |
| CNC(=O)c1cnc(N)c2cc(-c3ccc(OC(F)(F)F)cc3)sc12 | 70 |
| CNC(=O)c1cnc(N)c2cc(-c3ccc(C(C)(C)C#N)cc3)sc12 | 36 |
| CNC(=O)c1cnc(N)c2cc(-c3ccc(S(=O)(=O)NC(C)(C)C)cc3)sc12 | 30 |
| CC(C)(C)NS(=O)(=O)c1ccc(-c2cc3c(N)ncc(C(=O)NCCO)c3s2)cc1 | 78 |
| COCCNC(=O)c1cnc(N)c2cc(-c3ccc(S(=O)(=O)NC(C)(C)C)cc3)sc12 | 129 |
| CN(C)CCNC(=O)c1cnc(N)c2cc(-c3ccc(S(=O)(=O)NC(C)(C)C)cc3)sc12 | 708 |
| CC(C)(C)NS(=O)(=O)c1ccc(-c2cc3c(N)ncc(C(=O)NCCN4CCCCC4)c3s2)cc1 | 654 |
| CC(C)(C)NS(=O)(=O)c1ccc(-c2cc3c(N)ncc(C(=O)NCCN4CCOCC4)c3s2)cc1 | 177 |
| CC(C)(C)NS(=O)(=O)c1ccc(-c2cc3c(N)ncc(C(=O)NCCCN4CCOCC4)c3s2)cc1 | 206 |

target: T2, Tyrosine-protein kinase JAK3 (Homo sapiens, UniProt P52333); assay: not given; format: cell-based, Sf9; settings: not given
T2 sequence (P52333 whole entry): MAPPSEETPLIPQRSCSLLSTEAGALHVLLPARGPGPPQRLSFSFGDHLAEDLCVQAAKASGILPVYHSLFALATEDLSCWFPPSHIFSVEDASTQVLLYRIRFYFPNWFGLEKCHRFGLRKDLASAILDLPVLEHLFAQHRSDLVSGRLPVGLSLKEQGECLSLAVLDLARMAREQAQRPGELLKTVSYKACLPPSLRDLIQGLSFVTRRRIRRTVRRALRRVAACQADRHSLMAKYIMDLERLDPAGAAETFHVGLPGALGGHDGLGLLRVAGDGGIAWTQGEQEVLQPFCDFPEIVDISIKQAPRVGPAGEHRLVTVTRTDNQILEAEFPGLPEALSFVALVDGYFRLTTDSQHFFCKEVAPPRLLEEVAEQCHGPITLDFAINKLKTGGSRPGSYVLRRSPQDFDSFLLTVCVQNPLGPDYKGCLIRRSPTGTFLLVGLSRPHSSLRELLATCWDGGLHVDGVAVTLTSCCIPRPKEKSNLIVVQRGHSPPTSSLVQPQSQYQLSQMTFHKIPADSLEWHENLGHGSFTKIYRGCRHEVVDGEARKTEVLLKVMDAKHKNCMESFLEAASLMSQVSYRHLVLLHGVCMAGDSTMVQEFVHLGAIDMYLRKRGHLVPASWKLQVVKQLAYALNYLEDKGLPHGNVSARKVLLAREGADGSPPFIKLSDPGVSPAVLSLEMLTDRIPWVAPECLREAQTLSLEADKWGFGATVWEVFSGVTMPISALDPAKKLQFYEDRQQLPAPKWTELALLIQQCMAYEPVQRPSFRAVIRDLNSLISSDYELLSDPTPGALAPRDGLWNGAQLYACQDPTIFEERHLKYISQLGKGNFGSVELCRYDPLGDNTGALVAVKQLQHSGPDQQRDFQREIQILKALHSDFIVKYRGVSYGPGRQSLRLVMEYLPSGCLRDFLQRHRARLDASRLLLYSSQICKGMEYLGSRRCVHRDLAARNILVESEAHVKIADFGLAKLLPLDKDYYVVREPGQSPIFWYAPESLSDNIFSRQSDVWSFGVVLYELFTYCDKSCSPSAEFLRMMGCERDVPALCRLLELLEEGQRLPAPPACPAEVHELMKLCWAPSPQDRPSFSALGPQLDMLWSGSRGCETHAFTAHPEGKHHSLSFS

| SMILES | IC50 [nM] |
| --- | --- |
| CNC(=O)c1cnc(N)c2cc(-c3ccc(C(C)(C)C)cc3)sc12 | 188 |
| CNC(=O)c1cnc(N)c2cc(-c3ccc(OC(F)(F)F)cc3)sc12 | 365 |
| CNC(=O)c1cnc(N)c2cc(-c3ccc(C(C)(C)C#N)cc3)sc12 | 118 |
| CNC(=O)c1cnc(N)c2cc(-c3ccc(S(=O)(=O)NC(C)(C)C)cc3)sc12 | 307 |
| CC(C)(C)NS(=O)(=O)c1ccc(-c2cc3c(N)ncc(C(=O)NCCO)c3s2)cc1 | 434 |
| COCCNC(=O)c1cnc(N)c2cc(-c3ccc(S(=O)(=O)NC(C)(C)C)cc3)sc12 | 1280 |
| CN(C)CCNC(=O)c1cnc(N)c2cc(-c3ccc(S(=O)(=O)NC(C)(C)C)cc3)sc12 | 3330 |
| CC(C)(C)NS(=O)(=O)c1ccc(-c2cc3c(N)ncc(C(=O)NCCN4CCCCC4)c3s2)cc1 | 2380 |
| CC(C)(C)NS(=O)(=O)c1ccc(-c2cc3c(N)ncc(C(=O)NCCN4CCOCC4)c3s2)cc1 | 963 |
| CC(C)(C)NS(=O)(=O)c1ccc(-c2cc3c(N)ncc(C(=O)NCCCN4CCOCC4)c3s2)cc1 | 645 |

target: T3, Non-receptor tyrosine-protein kinase TYK2 (Homo sapiens, UniProt P29597); assay: not given; format: cell-based, Sf9; settings: not given
T3 sequence (P29597 whole entry): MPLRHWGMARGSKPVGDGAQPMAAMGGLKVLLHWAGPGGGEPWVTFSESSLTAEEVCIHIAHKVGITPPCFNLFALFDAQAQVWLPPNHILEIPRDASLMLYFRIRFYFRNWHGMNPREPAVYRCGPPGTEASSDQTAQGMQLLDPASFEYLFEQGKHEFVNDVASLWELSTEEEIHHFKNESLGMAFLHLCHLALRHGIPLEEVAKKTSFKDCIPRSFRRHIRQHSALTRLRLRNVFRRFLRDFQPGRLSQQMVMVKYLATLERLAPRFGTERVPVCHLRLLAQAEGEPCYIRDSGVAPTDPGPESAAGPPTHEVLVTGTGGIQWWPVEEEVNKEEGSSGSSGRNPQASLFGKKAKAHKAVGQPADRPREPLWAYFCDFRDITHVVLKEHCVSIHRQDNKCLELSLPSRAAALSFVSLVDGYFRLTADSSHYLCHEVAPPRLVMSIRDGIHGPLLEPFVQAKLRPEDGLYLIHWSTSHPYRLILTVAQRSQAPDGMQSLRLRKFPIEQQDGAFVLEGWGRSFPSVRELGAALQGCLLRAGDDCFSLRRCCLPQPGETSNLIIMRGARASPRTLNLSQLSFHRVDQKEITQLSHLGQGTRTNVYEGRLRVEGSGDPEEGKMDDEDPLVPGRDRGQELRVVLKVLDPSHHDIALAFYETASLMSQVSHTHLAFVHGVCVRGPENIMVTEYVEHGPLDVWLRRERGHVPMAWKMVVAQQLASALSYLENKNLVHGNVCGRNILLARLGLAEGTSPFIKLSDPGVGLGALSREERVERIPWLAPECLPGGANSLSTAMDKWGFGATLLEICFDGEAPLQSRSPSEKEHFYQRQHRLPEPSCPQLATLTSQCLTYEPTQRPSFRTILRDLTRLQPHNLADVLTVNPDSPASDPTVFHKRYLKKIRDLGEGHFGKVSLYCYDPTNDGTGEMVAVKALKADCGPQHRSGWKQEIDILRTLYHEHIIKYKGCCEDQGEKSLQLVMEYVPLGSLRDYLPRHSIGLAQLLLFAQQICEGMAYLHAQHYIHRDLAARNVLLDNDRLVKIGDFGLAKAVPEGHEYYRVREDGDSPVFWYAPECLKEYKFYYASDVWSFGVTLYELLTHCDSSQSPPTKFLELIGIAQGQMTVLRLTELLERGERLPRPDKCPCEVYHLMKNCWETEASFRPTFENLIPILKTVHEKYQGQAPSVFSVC

| SMILES | IC50 [nM] |
| --- | --- |
| CNC(=O)c1cnc(N)c2cc(-c3ccc(C(C)(C)C)cc3)sc12 | 202 |
| CNC(=O)c1cnc(N)c2cc(-c3ccc(OC(F)(F)F)cc3)sc12 | 208 |
| CNC(=O)c1cnc(N)c2cc(-c3ccc(C(C)(C)C#N)cc3)sc12 | 146 |
| CNC(=O)c1cnc(N)c2cc(-c3ccc(S(=O)(=O)NC(C)(C)C)cc3)sc12 | 266 |
| CC(C)(C)NS(=O)(=O)c1ccc(-c2cc3c(N)ncc(C(=O)NCCO)c3s2)cc1 | 932 |
| COCCNC(=O)c1cnc(N)c2cc(-c3ccc(S(=O)(=O)NC(C)(C)C)cc3)sc12 | 1480 |
| CN(C)CCNC(=O)c1cnc(N)c2cc(-c3ccc(S(=O)(=O)NC(C)(C)C)cc3)sc12 | 4100 |
| CC(C)(C)NS(=O)(=O)c1ccc(-c2cc3c(N)ncc(C(=O)NCCN4CCCCC4)c3s2)cc1 | 2670 |
| CC(C)(C)NS(=O)(=O)c1ccc(-c2cc3c(N)ncc(C(=O)NCCN4CCOCC4)c3s2)cc1 | 757 |
| CC(C)(C)NS(=O)(=O)c1ccc(-c2cc3c(N)ncc(C(=O)NCCCN4CCOCC4)c3s2)cc1 | 1550 |

target: T1, Tyrosine-protein kinase JAK1; assay: not given; format: cell-based, BaF3; settings: not given; remark: another data set of the same source

| SMILES | IC50 [nM] |
| --- | --- |
| CNC(=O)c1cnc(N)c2cc(-c3ccc(OC(F)(F)F)cc3)sc12 | 6850 |
| CNC(=O)c1cnc(N)c2cc(-c3ccc(C(C)(C)C#N)cc3)sc12 | 1160 |
| CNC(=O)c1cnc(N)c2cc(-c3ccc(S(=O)(=O)NC(C)(C)C)cc3)sc12 | 1090 |
| COCCNC(=O)c1cnc(N)c2cc(-c3ccc(S(=O)(=O)NC(C)(C)C)cc3)sc12 | 6610 |
| CN(C)CCNC(=O)c1cnc(N)c2cc(-c3ccc(S(=O)(=O)NC(C)(C)C)cc3)sc12 | > 25000 |
| CC(C)(C)NS(=O)(=O)c1ccc(-c2cc3c(N)ncc(C(=O)NCCN4CCCCC4)c3s2)cc1 | > 25000 |
| CC(C)(C)NS(=O)(=O)c1ccc(-c2cc3c(N)ncc(C(=O)NCCCN4CCOCC4)c3s2)cc1 | 12600 |

target: T2, Tyrosine-protein kinase JAK3; assay: not given; format: cell-based, BaF3; settings: not given; remark: another data set of the same source

| SMILES | IC50 [nM] |
| --- | --- |
| CNC(=O)c1cnc(N)c2cc(-c3ccc(C(C)(C)C)cc3)sc12 | > 25000 |
| CNC(=O)c1cnc(N)c2cc(-c3ccc(OC(F)(F)F)cc3)sc12 | > 25000 |
| CNC(=O)c1cnc(N)c2cc(-c3ccc(C(C)(C)C#N)cc3)sc12 | > 25000 |
| CNC(=O)c1cnc(N)c2cc(-c3ccc(S(=O)(=O)NC(C)(C)C)cc3)sc12 | > 25000 |
| CC(C)(C)NS(=O)(=O)c1ccc(-c2cc3c(N)ncc(C(=O)NCCO)c3s2)cc1 | > 25000 |
| COCCNC(=O)c1cnc(N)c2cc(-c3ccc(S(=O)(=O)NC(C)(C)C)cc3)sc12 | > 25000 |
| CN(C)CCNC(=O)c1cnc(N)c2cc(-c3ccc(S(=O)(=O)NC(C)(C)C)cc3)sc12 | > 25000 |
| CC(C)(C)NS(=O)(=O)c1ccc(-c2cc3c(N)ncc(C(=O)NCCN4CCCCC4)c3s2)cc1 | > 25000 |
| CC(C)(C)NS(=O)(=O)c1ccc(-c2cc3c(N)ncc(C(=O)NCCN4CCOCC4)c3s2)cc1 | > 25000 |
| CC(C)(C)NS(=O)(=O)c1ccc(-c2cc3c(N)ncc(C(=O)NCCCN4CCOCC4)c3s2)cc1 | > 25000 |

target: T3, Non-receptor tyrosine-protein kinase TYK2; assay: not given; format: cell-based, BaF3; settings: not given; remark: another data set of the same source

| SMILES | IC50 [nM] |
| --- | --- |
| CNC(=O)c1cnc(N)c2cc(-c3ccc(C(C)(C)C)cc3)sc12 | > 25000 |
| CNC(=O)c1cnc(N)c2cc(-c3ccc(OC(F)(F)F)cc3)sc12 | > 25000 |
| CNC(=O)c1cnc(N)c2cc(-c3ccc(C(C)(C)C#N)cc3)sc12 | > 25000 |
| CNC(=O)c1cnc(N)c2cc(-c3ccc(S(=O)(=O)NC(C)(C)C)cc3)sc12 | > 25000 |
| CC(C)(C)NS(=O)(=O)c1ccc(-c2cc3c(N)ncc(C(=O)NCCO)c3s2)cc1 | > 25000 |
| COCCNC(=O)c1cnc(N)c2cc(-c3ccc(S(=O)(=O)NC(C)(C)C)cc3)sc12 | > 25000 |
| CN(C)CCNC(=O)c1cnc(N)c2cc(-c3ccc(S(=O)(=O)NC(C)(C)C)cc3)sc12 | > 25000 |
| CC(C)(C)NS(=O)(=O)c1ccc(-c2cc3c(N)ncc(C(=O)NCCN4CCCCC4)c3s2)cc1 | > 25000 |
| CC(C)(C)NS(=O)(=O)c1ccc(-c2cc3c(N)ncc(C(=O)NCCN4CCOCC4)c3s2)cc1 | > 25000 |
| CC(C)(C)NS(=O)(=O)c1ccc(-c2cc3c(N)ncc(C(=O)NCCCN4CCOCC4)c3s2)cc1 | > 25000 |

target: T4, JAK3/JAK1 (Homo sapiens, UniProt P23458+P52333); assay: not given; format: cell-based; settings: not given
T4 sequence (P23458 whole entry, one chain of several): as the sequence (P23458 whole entry) above

| SMILES | IC50 [nM] |
| --- | --- |
| CNC(=O)c1cnc(N)c2cc(-c3ccc(S(=O)(=O)NC(C)(C)C)cc3)sc12 | 625 |
| COCCNC(=O)c1cnc(N)c2cc(-c3ccc(S(=O)(=O)NC(C)(C)C)cc3)sc12 | 4450 |
| CN(C)CCNC(=O)c1cnc(N)c2cc(-c3ccc(S(=O)(=O)NC(C)(C)C)cc3)sc12 | > 25000 |
| CC(C)(C)NS(=O)(=O)c1ccc(-c2cc3c(N)ncc(C(=O)NCCN4CCOCC4)c3s2)cc1 | 7300 |

target: T4, JAK3/JAK1; assay: not given; format: cell-based, Blood; settings: not given; remark: another data set of the same source

| SMILES | IC50 [nM] |
| --- | --- |
| CNC(=O)c1cnc(N)c2cc(-c3ccc(S(=O)(=O)NC(C)(C)C)cc3)sc12 | > 25000 |
| COCCNC(=O)c1cnc(N)c2cc(-c3ccc(S(=O)(=O)NC(C)(C)C)cc3)sc12 | > 25000 |
| CN(C)CCNC(=O)c1cnc(N)c2cc(-c3ccc(S(=O)(=O)NC(C)(C)C)cc3)sc12 | > 25000 |
| CC(C)(C)NS(=O)(=O)c1ccc(-c2cc3c(N)ncc(C(=O)NCCN4CCOCC4)c3s2)cc1 | > 25000 |

tested on: not listed separately; assay: in vitro; settings: human, plasma
Description: Fraction unbound in human plasma by equilibrium dialysis

| SMILES | fraction unbound |
| --- | --- |
| CNC(=O)c1cnc(N)c2cc(-c3ccc(S(=O)(=O)NC(C)(C)C)cc3)sc12 | 0.012 |
| COCCNC(=O)c1cnc(N)c2cc(-c3ccc(S(=O)(=O)NC(C)(C)C)cc3)sc12 | 0.023 |
| CN(C)CCNC(=O)c1cnc(N)c2cc(-c3ccc(S(=O)(=O)NC(C)(C)C)cc3)sc12 | 0.064 |
| CC(C)(C)NS(=O)(=O)c1ccc(-c2cc3c(N)ncc(C(=O)NCCN4CCOCC4)c3s2)cc1 | 0.101 |
